Results: patent US10082499B2, “Short term isotope pulse labeling method for analysing metabolic products in biological samples” (Max-Delbrueck-Centrum fuer Molekulare Medizin, priority 2014, dated 2018)
Entries after “also recorded” stand apart in the source; their conditions may differ.

System: T98G cells
Test: pSIRM analysis of glycolytic inhibition (13C-glucose pulse labeling, GC-MS)
Type: cell-based
Protocol: GC-MS measurement: Metabolite analysis was performed on a gas chromatography coupled to time of flight mass spectrometer (LECO-Pegasus III— TOF-MS-System, LECO), supplemented with an auto-sampler (MultiPurpose Sampler 2 XL, Gerstel). Samples and quantification standards were injected in split mode (split 1:5, injection volume: 1 ul,) in a temperature-controlled injector (CAS4, Gerstel) with a baffled glass-liner (Gerstel). The following temperature program was applied during sample injection: Initial temperature of 80° C. for 30 s followed by a ramp with 12° C./min to 120° C. and a second ramp with 7° C./min to 300° C. and final hold for 2 min. Gas chromatographic separation was performed on an Agilent 6890N (Agilent), equipped with a Varian VF-5 ms-column of 30 m length, 250 μm inner diameter and 0.25 μm film thickness (Varian). Helium was used as carrier gas with a flow rate of 1.2 mL/min. Gas chromatography was performed with the following temperature gradient: 2 min heating at 70° C., first temperature gradient with 5° C./min up to 120° C. and hold for 30 s, subsequently a second temperature increase of 7° C./min up to 350° C. with a hold time of 2 min. Spectra were recorded in a mass range of 60 to 600 u with 20 spectra/s at a detector voltage of 1750 V.
Data analysis: The vendor software ChromaTOF Version 4.42 (LECO Corp. St. Joseph—USA) was used for metabolite evaluation with the following parameter: baseline offset of 1, peak width of 4 s, signal/noise of 20, peak smoothing of 11 data-points. Retention indices were calculated based on retention index standards as described (Ref). GoIm Metabolome Database (GMD) provided peak identification. The quantification routine of ChromaTOF was used for external calibration based on the measured quantification standards. Exported csv-files included: Name, quant mass, retention index, 1st dimension retention time, 2nd dimension retention time, area, concentration, match, reverse, quant signal/noise, type, concentration units and the peak true spectrum in absolute values. For further data analysis the tool MetMax was developed in cooperation with the MPIMP in Potsdam-Golm (http://gmd.mpimp-golm.mpg.de/apps/metmax). MetMax provided of extraction of peak areas and quantities (retention analysis mode), and intensities of pre-defined mass ranges (isotope concentrator mode) from the exported csv-files. The in-house developed pSIRM-wizard enabled the determination of ^13C-label incorporation based on the exported data following the descriptions and equations stated in the paper.
Cell harvest: Growth media was removed from cells and cells were incubated in 5 ml of prewarmed (37° C.) wash-buffer (137 mM NaCl, 3 mM KCl, 5 mM HEPES, adjusted to a pH of 7.2-7.4) enriched with the same amount of glucose and glutamine as in the growth media (2.5 g/L and 4 mM respectively). For the metabolic labeling the wash-buffer is used as labeling buffer with glucose or glutamine replaced by their ^13C-counterpart. Cells were incubated for 3 minutes at 37° C. before harvest. The buffer was removed followed by an immediate addition of 5 ml of prechilled (−20 to −40° C.) 50% MeOH (with 2-4 μg/mL Cinnamic acid as internal standard) to the plate. Cells were scratched of the plates using cell-scraper and transferred to a falcon, which contain 1 ml of chloroform. Cell suspension was frozen in liquid nitrogen and stored at −80° C. until extraction. To extract cell metabolism the suspension was shaken for 30 minutes at 4° C., followed by a centrifugation for 10 minutes to perform phase separation. 4.5 ml of the upper, polar phase were transferred into a new falcon and dried under vacuum. On the next day the pellet was resuspended in 530 μl 20% Methanol (4° C.), shaken at 4° C. until completely solved, transferred into two eppies (2×250 μl) and dried under vacuum. The dried samples were stored at −20° C. and derivatized as described above. […]

[1] = 2 mM inhibitor 12 min + 3 min 13C-glucose
[2] = 2 mM inhibitor 12 min, then 3 min 13C-glucose in presence of inhibitor

Compound	13C-glucose incorporation (carbon flow) into citrate [1]	inhibitory effect on glycolysis [1]	isotope incorporation in pyruvate and lactate / pyruvate or lactate levels [1]	reduction of the 13C-fraction of hexose-phosphates [2] [%]	inhibitory effect on glycolysis (10 mM inhibitor)	isotope incorporation rates in G6P (10 mM inhibitor)	reduction of glycolytic flow (10 mM inhibitor)	carbon flow downstream of GAPDH (2 mM inhibitor)	concentration of 3PGA [1]	labelled fraction of G6P and F6P [1]	total concentration of G6P and F6P (hexose phosphates) [1]	reduction of carbon-flow into pyruvate, lactate and citrate [2]
O=CC[C@@H](O)[C@H](O)[C@H](O)CO [2DG, 2-deoxyglucose]	extended; also recorded: increasing	negligible	affected only marginally; also recorded: did not affect	20	stronger inhibition	not affected	up to 80%					
O=C(O)C(=O)CBr [BrPyr]		nearly completely inhibited						strong decline	diminished below the detection limit	reduced	increased	around 100%
